Patent publication US11858941B2, “Heterocyclic and heteroaryl compounds for treating Huntington's disease” (PTC THERAPEUTICS, INC., priority 2018, dated 2024)

System: Endogenous Huntingtin Protein
Assay: Endogenous Huntingtin Protein Assay (Meso Scale Discovery ELISA-based electrochemiluminescence)
Format: cell-based
Conditions: MSD plates coated with MW1 (expanded polyglutamine) or MAB2166 capture antibody; lysates
Description: Compounds of Formula (I) were tested using the Meso Scale Discovery (MSD) Assay provided in International Application No. PCT/US2016/066042, filed on Dec. 11, 2016 and claiming priority to United States Provisional Application U.S. 62/265,652 filed on Dec. 10, 2015, the entire contents of which are incorporated herein by reference.
The Endogenous Huntingtin Protein assay used in Example 1 was developed using the ELISA-based MSD electrochemiluminescence assay platform.
Endogenous Huntingtin Protein Assay
Meso Scale Discovery (MSD) 96-well or 384-well plates were coated overnight at 4° C. with MW1 (expanded polyglutamine) or MAB2166 monoclonal antibody (for capture) at a concentration of 1 μg/mL in PBS (30 μL per well). Plates were then washed three times with 300 μL wash buffer (0.05% Tween-20 in PBS) and blocked (100 μL blocking buffer; 5% BSA in PBS) for 4-5 hours at room temperature with rotational shaking and then washed three times with wash buffer.
Samples (25 μL) were transferred to the antibody-coated MSD plate and incubated overnight at 4° C. After removal of the lysates, the plate was washed three times with wash buffer, and 25 μL of #5656S (Cell signaling; rabbit monoclonal) secondary antibody (diluted to 0.25 μg/mL in 0.05% Tween-20 in blocking buffer) was added to each well and incubated with shaking for 1 Hour at room temperature. Following incubation with the secondary antibody, the wells were rinsed with wash buffer after which 25 μL of goat anti-rabbit SULFO TAG secondary detection antibody (required aspect of the MSD system) (diluted to 0.25 μg/mL in 0.05% Tween-20 in blocking buffer) was added to each well and incubated with shaking for 1 hour at room temperature. After rinsing three times with wash buffer, 150 μL of read buffer T with surfactant (MSD) were added to each empty well, and the plate was imaged on a SI 6000 imager (MSD) according to manufacturers' instructions provided for 96- or 384-well plates.

Row | IC50 [µM] | SMILES
1 | 0.1 to 0.5 | CC1(C)CC(n2cnc3nc(-c4ccc(-c5cn[nH]c5)cc4O)cnc32)CC(C)(C)N1 [Cpd 1, 5-(1H-pyrazol-4-yl)-2-[1-(2,2,6,6-tetramethylpiperidin-4-yl)-1H-imidazo[4,5-b]pyrazin-5-yl]phenol]
2 | 0.1 to 0.5 | CC1(C)CC(n2cnc3nc(-c4cc(F)c(-c5cn[nH]c5)cc4F)cnc32)CC(C)(C)N1 [Cpd 2, 5-[2,5-difluoro-4-(1H-pyrazol-4-yl)phenyl]-1-(2,2,6,6-tetramethylpiperidin-4-yl)-1H-imidazo[4,5-b]pyrazine]
3 | ≤ 0.1 | CC1(C)CC(n2cnc3cc(-c4ccc(-c5cn[nH]c5)cc4O)nnc32)CC(C)(C)N1 [Cpd 3, 5-(1H-pyrazol-4-yl)-2-[7-(2,2,6,6-tetramethylpiperidin-4-yl)-7H-imidazo[4,5-c]pyridazin-3-yl]phenol]
4 | ≤ 0.1 | CC1(C)CC(n2cnc3cc(-c4cc(F)c(-c5cn[nH]c5)cc4F)nnc32)CC(C)(C)N1 [Cpd 4, 3-[2,5-difluoro-4-(1H-pyrazol-4-yl)phenyl]-7-(2,2,6,6-tetramethylpiperidin-4-yl)-7H-imidazo[4,5-c]pyridazine]
5 | ≤ 0.1 | Cc1nc2cc(-c3ccc(-c4cn[nH]c4)cc3O)nnc2n1C1CC(C)(C)NC(C)(C)C1 [Cpd 5, 2-[6-methyl-7-(2,2,6,6-tetramethylpiperidin-4-yl)-7H-imidazo[4,5-c]pyridazin-3-yl]-5-(1H-pyrazol-4-yl)phenol]
6 | 0.5 to 1 | Cc1nc2cc(-c3cc(F)c(-c4cn[nH]c4)cc3F)nnc2n1C1CC(C)(C)NC(C)(C)C1 [Cpd 6, 3-[2,5-difluoro-4-(1H-pyrazol-4-yl)phenyl]-6-methyl-7-(2,2,6,6-tetramethylpiperidin-4-yl)-7H-imidazo[4,5-c]pyridazine]
7 | ≤ 0.1 | CC1(C)CC(n2nnc3cc(-c4ccc(-c5cn[nH]c5)cc4O)nnc32)CC(C)(C)N1 [Cpd 7, 5-(1H-pyrazol-4-yl)-2-[3-(2,2,6,6-tetramethylpiperidin-4-yl)-3H-[1,2,3]triazolo[4,5-c]pyridazin-6-yl]phenol]
8 | 1 to 3 | CC1(C)C=C(n2ccc3nc(-c4ccc(-c5cn[nH]c5)cc4O)cnc32)CC(C)(C)N1 [Cpd 8, 5-(1H-pyrazol-4-yl)-2-[5-(2,2,6,6-tetramethyl-1,2,3,6-tetrahydropyridin-4-yl)-5H-pyrrolo[2,3-b]pyrazin-2-yl]phenol]
9 | 1 to 3 | CC1(C)CC(n2c(O)nc3cc(-c4ccc(-c5cn[nH]c5)cc4O)nnc32)CC(C)(C)N1 [Cpd 9, 3-[2-hydroxy-4-(1H-pyrazol-4-yl)phenyl]-7-(2,2,6,6-tetramethylpiperidin-4-yl)-7H-imidazo[4,5-c]pyridazin-6-ol]
10 | ≤ 0.1 | CC1(C)CC(n2ccc3nc(-c4ccc(-c5cn[nH]c5)cc4O)cnc32)CC(C)(C)N1 [Cpd 10, 5-(1H-pyrazol-4-yl)-2-[5-(2,2,6,6-tetramethylpiperidin-4-yl)-5H-pyrrolo[2,3-b]pyrazin-2-yl]phenol]
11 | 0.1 to 0.5 | Oc1cc(-c2cn[nH]c2)ccc1-c1cc2[nH]cc(C3CCNCC3)c2nn1 [Cpd 12, 2-[7-(piperidin-4-yl)-5H-pyrrolo[3,2-c]pyridazin-3-yl]-5-(1H-pyrazol-4-yl)phenol]
12 | 0.1 to 0.5 | CC1(C)CC(n2nnc3cc(-c4ccc(-c5cn[nH]c5)c(F)c4F)nnc32)CC(C)(C)N1 [Cpd 13, 6-[2,3-difluoro-4-(1H-pyrazol-4-yl)phenyl]-3-(2,2,6,6-tetramethylpiperidin-4-yl)-3H-[1,2,3]triazolo[4,5-c]pyridazine]
13 | 0.1 to 0.5 | CC1(C)CC(n2nnc3cc(-c4cc(F)c(-c5cn[nH]c5)cc4F)nnc32)CC(C)(C)N1 [Cpd 14, 6-[2,5-difluoro-4-(1H-pyrazol-4-yl)phenyl]-3-(2,2,6,6-tetramethylpiperidin-4-yl)-3H-[1,2,3]triazolo[4,5-c]pyridazine]
14 | 0.1 to 0.5 | CC1(C)CC(n2ccc3nc(-c4cc(F)c(-c5cn[nH]c5)cc4F)cnc32)CC(C)(C)N1 [Cpd 16, 2-[2,5-difluoro-4-(1H-pyrazol-4-yl)phenyl]-5-(2,2,6,6-tetramethylpiperidin-4-yl)-5H-pyrrolo[2,3-b]pyrazine]
15 | ≤ 0.1 | CC1(C)C=C(c2csc3cc(-c4ccc(-c5cn[nH]c5)cc4O)nnc23)CC(C)(C)N1 [Cpd 17, 5-(1H-pyrazol-4-yl)-2-[7-(2,2,6,6-tetramethyl-1,2,3,6-tetrahydropyridin-4-yl)thieno[3,2-c]pyridazin-3-yl]phenol]
16 | 1 to 3 | Oc1cc(-c2cn[nH]c2)ccc1-c1cnc2c(cnn2C2CCNCC2)n1 [Cpd 19, 2-[1-(piperidin-4-yl)-1H-pyrazolo[3,4-b]pyrazin-5-yl]-5-(1H-pyrazol-4-yl)phenol]
17 | ≤ 0.1 | CC1(C)C=C(c2c[nH]c3cc(-c4ccc(-c5cn[nH]c5)cc4O)nnc23)CC(C)(C)N1 [Cpd 20, 5-(1H-pyrazol-4-yl)-2-[7-(2,2,6,6-tetramethyl-1,2,3,6-tetrahydropyridin-4-yl)-5H-pyrrolo[3,2-c]pyridazin-3-yl]phenol]
18 | 1 to 3 | Oc1cc(-c2cn[nH]c2)ccc1-c1cc2cnn(C3CCNCC3)c2nn1 [Cpd 21, 2-[1-(piperidin-4-yl)-1H-pyrazolo[3,4-c]pyridazin-5-yl]-5-(1H-pyrazol-4-yl)phenol]
19 | ≤ 0.1 | CC1(C)CC(n2ncc3cc(-c4ccc(-c5cn[nH]c5)cc4O)nnc32)CC(C)(C)N1 [Cpd 22, 5-(1H-pyrazol-4-yl)-2-[1-(2,2,6,6-tetramethylpiperidin-4-yl)-1H-pyrazolo[3,4-c]pyridazin-5-yl]phenol]
20 | ≤ 0.1 | CC1(C)CC(N2CCc3cc(-c4ccc(-c5cn[nH]c5)cc4O)nnc32)CC(C)(C)N1 [Cpd 23, 5-(1H-pyrazol-4-yl)-2-[7-(2,2,6,6-tetramethylpiperidin-4-yl)-6,7-dihydro-5H-pyrrolo[2,3-c]pyridazin-3-yl]phenol]
21 | ≤ 0.1 | CC1(C)CC(c2csc3cc(-c4ccc(-c5cn[nH]c5)cc4O)nnc23)CC(C)(C)N1 [Cpd 24, 5-(1H-pyrazol-4-yl)-2-[7-(2,2,6,6-tetramethylpiperidin-4-yl)thieno[3,2-c]pyridazin-3-yl]phenol]
22 | ≤ 0.1 | CC1(C)CC(n2ccc3cc(-c4ccc(-c5cn[nH]c5)cc4O)nnc32)CC(C)(C)N1 [Cpd 26, 5-(1H-pyrazol-4-yl)-2-[7-(2,2,6,6-tetramethylpiperidin-4-yl)-7H-pyrrolo[2,3-c]pyridazin-3-yl]phenol]
23 | ≤ 0.1 | CC1(C)CC(c2c[nH]c3cc(-c4ccc(-c5cn[nH]c5)cc4O)nnc23)CC(C)(C)N1 [Cpd 31, 5-(1H-pyrazol-4-yl)-2-[7-(2,2,6,6-tetramethylpiperidin-4-yl)-5H-pyrrolo[3,2-c]pyridazin-3-yl]phenol]
24 | 0.1 to 0.5 | CC1(C)CC(N2CCc3cc(-c4ccc(-c5cn[nH]c5)c(F)c4F)nnc32)CC(C)(C)N1 [Cpd 32, 3-[2,3-difluoro-4-(1H-pyrazol-4-yl)phenyl]-7-(2,2,6,6-tetramethylpiperidin-4-yl)-6,7-dihydro-5H-pyrrolo[2,3-c]pyridazine]

Row | SMILES | IC50 [µM]
25 | Oc1cc(-c2cn[nH]c2)ccc1-c1cc2[nH]cc(C3=CCNCC3)c2nn1 [Cpd 11, 5-(1H-pyrazol-4-yl)-2-[7-(1,2,3,6-tetrahydropyridin-4-yl)-5H-pyrrolo[3,2-c]pyridazin-3-yl]phenol] | 1 to 3
26 | Oc1cc(-c2cn[nH]c2)ccc1-c1cc2scc(C3=CCNCC3)c2nn1 [Cpd 15, 5-(1H-pyrazol-4-yl)-2-[7-(1,2,3,6-tetrahydropyridin-4-yl)thieno[3,2-c]pyridazin-3-yl]phenol] | 1 to 3
27 | Oc1cc(-c2cn[nH]c2)ccc1-c1cc2scc(C3=CC4CCC(C3)N4)c2nn1 (centres unmarked) [Cpd 18, 2-[7-(8-azabicyclo[3.2.1]oct-2-en-3-yl)thieno[3,2-c]pyridazin-3-yl]-5-(1H-pyrazol-4-yl)phenol] | ≤ 0.1
28 | Oc1cc(-c2cn[nH]c2)ccc1-c1cc2scc(C3=CC4COCC(C3)N4)c2nn1 (centres unmarked) [Cpd 25, 2-[7-(3-oxa-9-azabicyclo[3.3.1]non-6-en-7-yl)thieno[3,2-c]pyridazin-3-yl]-5-(1H-pyrazol-4-yl)phenol] | ≤ 0.1
29 | Oc1cc(-c2cn[nH]c2)ccc1-c1cc2[nH]cc(C3=CC4CCC(C3)N4)c2nn1 (centres unmarked) [Cpd 27, 2-[7-(8-azabicyclo[3.2.1]oct-2-en-3-yl)-5H-pyrrolo[3,2-c]pyridazin-3-yl]-5-(1H-pyrazol-4-yl)phenol] | ≤ 0.1
30 | Oc1cc(-c2cn[nH]c2)ccc1-c1cc2[nH]cc(C3=CC4COCC(C3)N4)c2nn1 (centres unmarked) [Cpd 28, 2-[7-(3-oxa-9-azabicyclo[3.3.1]non-6-en-7-yl)-5H-pyrrolo[3,2-c]pyridazin-3-yl]-5-(1H-pyrazol-4-yl)phenol] | 1 to 3
31 | Oc1cc(-c2cn[nH]c2)ccc1-c1cc2[nH]cc(C3CC4CCC(C3)N4)c2nn1 (centres unmarked) [Cpd 29, 2-[7-(8-azabicyclo[3.2.1]oct-3-yl)-5H-pyrrolo[3,2-c]pyridazin-3-yl]-5-(1H-pyrazol-4-yl)phenol] | ≤ 0.1
32 | Oc1cc(-c2cn[nH]c2)ccc1-c1cc2[nH]cc(C3CC4COCC(C3)N4)c2nn1 (centres unmarked) [Cpd 30, 2-[7-(3-oxa-9-azabicyclo[3.3.1]non-7-yl)-5H-pyrrolo[3,2-c]pyridazin-3-yl]-5-(1H-pyrazol-4-yl)phenol] | 0.5 to 1
